The values that follow come from patent US20140357487A1, “PLANTS HAVING INCREASED TOLERANCE TO HERBICIDES” (BASF SE, priority 2011, published 2014).

Structures are written as SMILES.

For experiment [1], the system named is transgenic corn plants, Arabidopsis Q293S, event SDM-71864. Kind of experiment: Greenhouse testing of transgenic corn plants, Arabidopsis Q293S. It counts as in vivo, Zea mays. As to conditions: corn SDM-71864, 5 days after herbicide treatment, average of 8 T1. The source says: Various methods for the production of stably transformed plants are well known in the art. Coumarone-derivative herbicide tolerant soybean (Glycine max) or corn (Zea mays) plants can be produced by a method described by Olhoft et al. (US patent 2009/0049567). Briefly, HPPD or HST encoding polynucleotides are cloned into a binary vector using standard cloning techniques as described by Sambrook et al. (Molecular cloning (2001) Cold Spring Harbor Laboratory Press). The final vector construct contains an HPPD or HST encoding sequence flanked by a promoter sequence (e.g. the ubiquitin promoter (PcUbi) sequence) and a terminator sequence (e.g. the nopaline synthase terminator (NOS) sequence) and a resistance marker gene cassette (e.g. AHAS) (FIG. 2). Optionally, the HPPD or HST gene can provide the means of selection. Agrobacterium-mediated transformation is used to introduce the DNA into soybean's axillary meristem cells at the primary node of seedling explants. After inoculation and co-cultivation with Agrobacteria, the explants are transferred to shoot induction medium without selection for one week. The explants are subsequently transferred to shoot induction medium with 1-3 μM imazapyr (Arsenal) for 3 weeks to select for transformed cells. Explants with healthy callus/shoot pads at the primary node are then transferred to shoot elongation medium containing 1-3 μM imazapyr until a shoot elongates or the explant dies. After regeneration, transformants are transplanted to soil in small pots, placed in growth chambers (16 hr day/8 hr night; 25° C. day/23° C. night; 65% relative humidity; 130-150 mE m−2 s−1) and subsequently tested for the presence of the T-DNA via Taqman analysis. After a few weeks, healthy, transgenic positive, single copy events are transplanted to larger pots and allowed to grow in the growth chamber. Transformation of corn plants is done by a method described by McElver and Singh (WO 2008/124495). Plant transformation vector constructs containing HPPD or HST sequences are introduced into maize immature embryos via Agrobacterium-mediated transformation. Transformed cells are selected in selection media supplemented with 0.5-1.5 μM imazethapyr for 3-4 weeks. Transgenic plantlets are regenerated on plant regeneration media and rooted afterwards. Transgenic plantlets are subjected to TaqMan analysis for the presence of the transgene before being transplanted to potting mixture and grown to maturity in greenhouse. Arabidopsis thaliana is transformed with HPPD or HST sequences by floral dip method as described by McElver and Singh (WO 2008/124495). Transgenic Arabidopsis plants are subjected to Tag Man analysis for analysis of the number of integration loci. Transformation of Oryza sativa (rice) are done by protoplast transformation as described by Peng et al. (U.S. Pat. No. 6,653,529)
Transgenic plants expressing heterologous HPPD or HST enzymes are tested for tolerance against coumarone-derivative herbicides in greenhouse experiments.
For post emergence treatment, the test plants are first grown to a height of 3 to 15 cm, depending on the plant habit, and only then treated with the herbicides. For this purpose, the test plants are either sown directly and grown in the same containers, or they are first grown separately and transplanted into the test containers a few days prior to treatment.
Depending on the species, the plants are kept at 10-25° C. or 20-35° C. […] During this time, the plants are tended and their response to the individual treatments is evaluated. […] Tolerance to coumarone-derivative herbicides can also be assessed in Arabidopsis. In this case transgenic Arabidopsis thaliana plants are assayed for improved tolerance to coumarone-derivative herbicides in 48-well plates. Seeds are surface sterilized by stirring for 5 min in ethanol+water (70+30 by volume), rinsing one time with ethanol+water (70+30 by volume) and two times with a sterile, deionized water. […]

For experiment [2], the target named is T1, Arabidopsis HPPD variant M335H, P336A, E363Q (Arabidopsis thaliana, UniProt P93836, E363Q/M335H/P336A).
T1 construct: PCR-based site directed mutagenesis of pEXP5-NT/TOPO®-AtHPPD is done; His6 (N); made in house; host or cells: E. coli BL21 (DE3)
T1 sequence (P93836 whole entry M335H/P336A/E363Q): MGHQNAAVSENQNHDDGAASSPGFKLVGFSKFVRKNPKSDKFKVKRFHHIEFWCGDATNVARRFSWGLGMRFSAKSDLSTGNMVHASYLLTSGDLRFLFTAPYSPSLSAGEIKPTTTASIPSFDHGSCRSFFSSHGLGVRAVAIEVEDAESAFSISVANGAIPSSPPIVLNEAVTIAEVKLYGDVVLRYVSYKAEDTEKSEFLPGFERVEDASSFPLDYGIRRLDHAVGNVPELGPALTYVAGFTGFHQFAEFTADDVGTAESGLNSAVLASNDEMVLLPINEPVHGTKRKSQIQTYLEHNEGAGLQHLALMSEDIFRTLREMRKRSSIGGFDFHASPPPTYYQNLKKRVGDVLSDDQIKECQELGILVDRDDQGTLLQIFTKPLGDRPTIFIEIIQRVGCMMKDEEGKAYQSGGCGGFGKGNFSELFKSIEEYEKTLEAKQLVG
In words: HPPD activity assay, Arabidopsis HPPD mutant M335H, P336A, E363Q. It counts as biochemical. As to conditions: normalized on Arabidopsis wild-type HPPD. The method, then: HPPD produces homogentisic acid and CO2 from 4-hydroxyphenylpyruvate (4-HPP) and O2. The activity assay for HPPD is based on the analysis of homogentisic acid by reversed phase HPLC.
The assay mixture can contain 150 mM potassium phosphate buffer pH 7.0, 50 mM L-ascorbic acid, 1 μM FeSO4 and 7 μg of purified enzyme in a total volume of 1 ml.
Inhibitors are dissolved in DMSO (dimethylsulfoxide) to a concentration of 20 mM or 0.5 mM, respectively. From this stock solution serial five-fold dilutions are prepared in DMSO, which are used in the assay. The respective inhibitor solution accounts for 1% of the assay volume. […] After a preincubation of 30 min the reaction is started by adding 4-HPP to a final concentration of 0.1 mM. The reaction is allowed to proceed for 120 min at room temperature. The reaction is stopped by addition of 100 μl of 4.5 M phosphoric acid.
Activities are normalized by setting the uninhibited enzyme activity to 100%. IC50 values are calculated using non-linear regression.
The assay mixture can contain 150 mM potassium phosphate buffer pH 7.0, 50 mM L-ascorbic acid, 100 μM Catalase (Sigma-Aldrich), 1 μM FeSO4 and 0.2 units of purified HPPD enzyme in a total volume of 505 μl. 1 unit is defined as the amount of enzyme that is required to produce 1 nmol of HGA per minute at 20° C.
Inhibitors are dissolved in DMSO (dimethylsulfoxide) to a concentration of 0.5 mM. […] IC50 values are calculated using non-linear regression. […]
Purified, mutant HPPD enzymes are obtained by the methods described above. […] Apparent michaelis constants (Km) and maximal reaction velocities (Vmax) are calculated by non-linear regression with the software GraphPad Prism 5 (GraphPad Software, La Jolla, USA) using a substrate inhibition model.
Field performance of the optimized HPPD enzyme, which is used as a herbicide tolerance trait may depend not only on its lack of sensitivity towards HPPD inhibiting herbicides but also on its activity. To assess the potential performance of a herbicide tolerance trait a tolerance index (TI) is calculated using the following formula: […]

In the case of `CC1(C)c2cccnc2C(O)=C(c2ccc(Cl)nc2Cl)S1(=O)=O` [Inhibitor 2, 7-(2,6-dichloro-3-pyridyl)-5,5-dimethyl-6,6-dioxo-thiopyrano[4,3-b]pyridin-8-ol], the “Injury evaluation, scale of 1-100, bleaching phenotype” value was 4 in experiment [1] (2.5 g/ha), 17 in experiment [1] (10 g/ha) and 15 in experiment [1] (40 g/ha).
With `Cc1c(C(=O)c2cnn(C)c2O)ccc(S(C)(=O)=O)c1C1=NOCC1` [Topramezone, reference compound], the “Injury evaluation, scale of 1-100, bleaching phenotype” value in experiment [1] (6.25 g/ha) is on record as 1; in experiment [1] (25 g/ha), 4; in experiment [1] (100 g/ha), 6.
As for `COCCOCc1c(Cl)ccc(C2=C(O)c3ncccc3C(C)(C)S2(=O)=O)c1Cl` [Inhibitor 3, 7-[2,4-dichloro-3-(2-methoxyethoxymethyl)phenyl]-5,5-dimethyl-6,6-dioxo-thiopyrano[4,3-b]pyridin-8-ol], the “Normalized tolerance index TI” value in experiment [2] was determined as 0.3.
Still for that read-out and setting: as for `CC1=NOC(c2c(Cl)ccc(C3=C(O)c4ncccc4C(C)(C)S3(=O)=O)c2Cl)C1` (centres unmarked) [Inhibitor 1, 7-[2,4-dichloro-3-(3-methyl-4,5-dihydroisoxazol-5-yl)phenyl]-5,5-dimethyl-6,6-dioxo-thiopyrano[4,3-b]pyridin-8-ol], the figure is 5.5.
